Data from publication PMC12865133, “Macrocyclic Molecular Glues for the 14‐3‐3/ChREBP Interaction: Affinity and Cooperativity in an Inverse Relationship” (Angewandte Chemie (International Ed. in English), 2025).
Each block holds one compound with its values, some of them ahead of it.

How the values were obtained:
14-3-3/ChREBP complex = molecular target: T1, 14-3-3/ChREBP complex (Homo sapiens, UniProt P31946+Q9NP71); assay: 2D FA titrations fitted to thermodynamic cooperativity model; settings: for α1 / α / Kd: 2D FA model fit; for α1: dimeric 14-3-3 model; for Kd: KDI; for cooperativity (α) factor: 2D FA, 14-3-3β titrated to FITC-labeled MG with varying ChREBP peptide, KD^II fixed 1.5 µM, mean of n = 2
T1 sequence (P31946 1-246): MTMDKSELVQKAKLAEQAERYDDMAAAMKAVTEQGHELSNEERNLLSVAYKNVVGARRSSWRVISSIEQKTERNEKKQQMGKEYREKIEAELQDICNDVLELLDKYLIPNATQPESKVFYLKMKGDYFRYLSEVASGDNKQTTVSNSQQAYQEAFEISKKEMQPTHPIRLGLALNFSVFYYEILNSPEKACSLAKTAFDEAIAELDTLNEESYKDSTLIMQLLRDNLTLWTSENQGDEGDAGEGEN
T1 sequence (Q9NP71 117-142 partner limits assumed): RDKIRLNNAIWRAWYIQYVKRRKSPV

14-3-3γ [1] = molecular target: T2, 14-3-3γ (Homo sapiens, UniProt P61981); assay: Isothermal titration calorimetry, peptide titrated to 14-3-3γ; assay type: binding; settings: ITC, 200 μM peptide titrated to 20 μM 14-3-3γ, mean ± SD, n=3; for ΔS: 25 mM HEPES pH 8.0, 100 mM NaCl, 10 mM MgCl2, 500 µM TCEP, 25 °C; for ΔG / ΔH: pH 8.0, 25 °C
T2 sequence (P61981 1-247): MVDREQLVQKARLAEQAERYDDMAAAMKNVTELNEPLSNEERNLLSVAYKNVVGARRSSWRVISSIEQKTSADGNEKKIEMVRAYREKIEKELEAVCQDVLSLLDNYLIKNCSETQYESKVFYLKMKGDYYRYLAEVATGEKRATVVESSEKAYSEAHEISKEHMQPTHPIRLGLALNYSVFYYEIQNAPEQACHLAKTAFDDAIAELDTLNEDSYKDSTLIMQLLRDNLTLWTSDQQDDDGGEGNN
Procedure: Final dialysis fluid from protein expression was frozen as 2 mL aliquots to serve as ITC buffer (25 mM HEPES pH 8.0, 100 mM NaCl, 10 mM MgCl2, 500 µM TCEP). 14-3-3γ and peptide were dissolved and diluted in this buffer to 20 μM and 200 μM, respectively. Samples were degassed for 10 min prior to measurement at 450 mmHg. The reference cell was filled with 300 µL degassed MilliQ and the sample cell was filled with 300 µL of peptide or protein mixture. Syringe was loaded with at least 200 µL protein or peptide sample. Measurements were performed on an Affinity ITC LV (TA instruments), with injection size set to 2 µL, stirring speed of 125 rpm and temperature at 25 ̊C. The baseline was automatically adjusted with NITPIC, analysis of data was done in SEDPHAT, and images were produced with GUSSI software. Data and errors represent mean ± SD, n=3 replicates.

14-3-3γ [2] = molecular target: T2, 14-3-3γ; assay: Surface plasmon resonance, Twinstrep-tagged 14-3-3γ captured on StrepTactinXT chip; settings: for KD, affinity fit: SPR steady-state 1:1 fit; for kon: pH 7.4, read-out: ka, kinetic fit
Procedure: The SPR experiments were performed at 25 °C using a Biacore X100 (Cytiva) and a 200 nm Strep-Tactin XT derivatized linear polycarboxylate hydrogel chip, medium charge density (XanTec Bioanalytics). All proteins and peptides were dissolved in fresh running buffer prepared with ultrapure water and filtered through a 0.2 μm filter (10 mM HEPES pH 7.4, 200 mM NaCl, 50 μM EDTA, 0.005% P20). First the surface was conditioned with a 1 min injection of 3 M Guanidine HCl. The Biacore X100 was primed with running buffer. […] Flow cell 1 was left blank as a reference surface. […] Between cycles of one multi-cycle measurement, no regeneration step was performed due to the complete dissociation of the analyte. […] The data collection rate of the instrument is 1 datapoint/sec. […] All parameters were fitted using global fitting, including the Rmax, because a single immobilization was used for all analyte concentrations. The RI was set constant at 0 RU. Next to kinetic fitting, the affinity fit was made using a 1:1 binding model by plotting the response (RU) at steady state over the analyte concentration (Fig. S2).

14-3-3β = molecular target: T3, 14-3-3β (Homo sapiens, UniProt P31946); assay: FA titration of 14-3-3β to FITC-labeled macrocycle (EC50 used for selectivity assay); assay type: binding; settings: 14-3-3β concentration equal to/around EC50 for FITC-labeled macrocycle (10 nM)
T3 construct: The full-length human 14-3-3β and γ proteins; made in house; host or cells: Escherichia coli BL21(DE3)
T3 sequence (P31946 1-246): T1 sequence (P31946 1-246)
Procedure: For the 2D titrations, 14-3-3β was titrated in a 2-fold dilution series (starting at 250 µM) to a mix of fluorescein-labeled macrocycle (5 nM) against varying fixed concentrations of ChREBP (2-fold dilution starting from 20 µM (replicate 1) or 10 µM (replicate 2)).
Dilution series were made in a polystyrene (non-binding) low-volume Corning Black Round Bottom 384-well plates (Corning 4514 or 4511). […] Wells containing 5 nm FITC-macrocycle were used to set as G-factor. All data were analyzed using Origin2023b and fitted using a four-parameter logistic model. Each measurement was performed in three independent experiments.

14-3-3γ [3] = molecular target: T2, 14-3-3γ; assay: Fluorescence Anisotropy protein titration of 14-3-3γ to FITC-labeled macrocycles; assay type: binding; settings: FA, 14-3-3γ titrated (2-fold from 250 µM) to FITC-labeled peptide (10 nM in Fig. 2a, 5 nM in method), 10 mM HEPES pH 7.4, 150 mM NaCl, 0.1% Tween20, 0.1% BSA, rt, mean ± SD, n = 3
Procedure: Wells containing 5 nm FITC-macrocycle were used to set as G-factor. All data were analyzed using Origin2023b and fitted using a four-parameter logistic model. Each measurement was performed in three independent experiments.

[4] = tested on: 14-3-3β/macrocycle complex; assay: FA selectivity assay, acetylated 14-3-3 client peptides titrated to 14-3-3β/macrocycle complex; assay type: binding, human; settings: acetylated client peptide titrated from 100 μM to 14-3-3β (at EC50) and FITC-labeled macrocycle (10 nM), n = 3
[5] = replicate 1 (ChREBP from 20 μM)
[6] = replicate 2 (ChREBP from 10 μM)
[7] = SPR, 1:1 model, 25 °C, 10 mM HEPES pH 7.4, 200 mM NaCl, replicate 1
[8] = SPR, 1:1 model, 25 °C, pH 7.4, average ± SD, n=2, SD
[9] = SPR, 1:1 model, 25 °C, pH 7.4, replicate 1
[10] = SPR, 1:1 model, 25 °C, pH 7.4, replicate 2

α1 (14-3-3/ChREBP complex; replicate 1): 82.8
α1 (14-3-3/ChREBP complex; replicate 2): 85.4
α (14-3-3/ChREBP complex; [5]): 314
α (14-3-3/ChREBP complex; [6]): 363
cooperativity (α) factor (14-3-3/ChREBP complex): 339 ± 35
Compound: NCCCC[C@@H](C(=O)NCCC(=O)N[C@@H](CCCCNC(=S)Nc1ccc2c(c1)C(=O)OC21c2ccc(O)cc2Oc2cc(O)ccc21)C(N)=O)N1Cc2cn(nn2)-c2ccc(cc2)C[C@H](NC(=O)[C@@H](N)COP(=O)(O)O)C(=O)N[C@@H](CO)CC(=O)NCCC(=O)N[C@@H](Cc2ccc([N+](=O)[O-])cc2)C1=O [Macrocycle F1]

EC50 (14-3-3β): 7000 nM
Compound: NCCCC[C@@H](C(=O)NCCC(=O)N[C@@H](CCCCNC(=S)Nc1ccc2c(c1)C(=O)OC21c2ccc(O)cc2Oc2cc(O)ccc21)C(N)=O)N1CCc2cn(nn2)-c2ccc(cc2)C[C@H](NC(=O)[C@@H](N)COP(=O)(O)O)C(=O)N[C@@H](CO)CC(=O)NCCC(=O)N[C@@H](Cc2ccc([N+](=O)[O-])cc2)C1=O [Macrocycle F2]

Kd (14-3-3γ [3]): 230 ± 60 nM
cooperativity (α) factor (14-3-3/ChREBP complex): 12 ± 1
Compound: NCCCC[C@@H](C(=O)NCCC(=O)N[C@@H](CCCCNC(=S)Nc1ccc2c(c1)C(=O)OC21c2ccc(O)cc2Oc2cc(O)ccc21)C(N)=O)N1CCCc2cn(nn2)-c2ccc(cc2)C[C@H](NC(=O)[C@@H](N)COP(=O)(O)O)C(=O)N[C@@H](CO)CC(=O)NCCC(=O)N[C@@H](Cc2ccc([N+](=O)[O-])cc2)C1=O [Macrocycle F3]

EC50 (14-3-3β): 2000 nM
cooperativity (α) factor (14-3-3/ChREBP complex): 42 ± 1
Compound: NCCCC[C@@H](C(=O)NCCC(=O)N[C@@H](CCCCNC(=S)Nc1ccc2c(c1)C(=O)OC21c2ccc(O)cc2Oc2cc(O)ccc21)C(N)=O)N1CCCCc2cn(nn2)-c2ccc(cc2)C[C@H](NC(=O)[C@@H](N)COP(=O)(O)O)C(=O)N[C@@H](CO)CC(=O)NCCC(=O)N[C@@H](Cc2ccc([N+](=O)[O-])cc2)C1=O [Macrocycle F4]

Further lines, the compound ahead of its results:

Compound: NCCCC[C@@H](C(=O)NCCC(=O)N[C@@H](CCCCNC(=S)Nc1ccc2c(c1)C(=O)OC21c2ccc(O)cc2Oc2cc(O)ccc21)C(N)=O)N1CCc2cn(nn2)-c2ccc(cc2)C[C@H](NC(=O)[C@@H](N)COP(=O)(O)O)C(=O)N[C@@H](CO)CC(=O)NCCC(=O)N[C@@H](Cc2ccc([N+](=O)[O-])cc2)C1=O [Macrocycle 2]
α1 (14-3-3/ChREBP complex; replicate 1): 18.8
α1 (14-3-3/ChREBP complex; replicate 2): 8.3
α (14-3-3/ChREBP complex; [5]): 46
α (14-3-3/ChREBP complex; [6]): 61

Compound: NCCCC[C@@H](C(N)=O)N1CCCc2cn(nn2)-c2ccc(cc2)C[C@H](NC(=O)[C@@H](N)COP(=O)(O)O)C(=O)N[C@@H](CO)CC(=O)NCCC(=O)N[C@@H](Cc2ccc([N+](=O)[O-])cc2)C1=O [Macrocycle 3]
ΔS (14-3-3γ [1]): 5.9 ± 0.89 cal/(mol·K)
ΔG (14-3-3γ [1]): -9.24 ± 0.028 kcal/mol
ΔH (14-3-3γ [1]): -7.5 ± 0.70 kcal/mol
α1 (14-3-3/ChREBP complex; replicate 1): 11.7
α1 (14-3-3/ChREBP complex; replicate 2): 11
α (14-3-3/ChREBP complex; [5]): 12.3
α (14-3-3/ChREBP complex; [6]): 11
Kd (14-3-3γ [2]; KD, kinetic fit, SPR, 1:1 model, 25 °C, pH 7.4, average ± SD, n=2, SD): 230 nM
KD, affinity fit (14-3-3γ [2]; 25 °C, pH 7.4, replicate 1): 228 nM
KD, affinity fit (14-3-3γ [2]; 25 °C, pH 7.4, replicate 2): 253 nM
ka, kinetic fit (14-3-3γ [2]; [7]): 629000 M⁻¹ s⁻¹
kd, kinetic fit (14-3-3γ [2]; [8]): 0.13 ± 0.01 s⁻¹
KD, kinetic fit (14-3-3γ [2]; [9]): 220 nM
kd, kinetic fit (14-3-3γ [2]; [9]): 0.1384 s⁻¹
KD, kinetic fit (14-3-3γ [2]; [10]): 233 nM
ka, kinetic fit (14-3-3γ [2]; [10]): 556000 M⁻¹ s⁻¹
kd, kinetic fit (14-3-3γ [2]; [10]): 0.1296 s⁻¹
kon (14-3-3γ [2]; SD): 590000 M⁻¹ s⁻¹

Compound: NCCCC[C@@H](C(N)=O)N1CCCCc2cn(nn2)-c2ccc(cc2)C[C@H](NC(=O)[C@@H](N)COP(=O)(O)O)C(=O)N[C@@H](CO)CC(=O)NCCC(=O)N[C@@H](Cc2ccc([N+](=O)[O-])cc2)C1=O [Macrocycle 4]
ΔS (14-3-3γ [1]): 2.9 ± 0.78 cal/(mol·K)
ΔG (14-3-3γ [1]): -8.15 ± 0.10 kcal/mol
ΔH (14-3-3γ [1]): -7.4 ± 0.44 kcal/mol
α1 (14-3-3/ChREBP complex; replicate 1): 11.8
α1 (14-3-3/ChREBP complex; replicate 2): 13.5
α (14-3-3/ChREBP complex; [5]): 42.5
α (14-3-3/ChREBP complex; [6]): 41.3
Kd (14-3-3/ChREBP complex; [5]): 5000 nM
Kd (14-3-3/ChREBP complex; [6]): 5000 nM
KD, affinity fit (14-3-3γ [2]; 25 °C, pH 7.4, replicate 1): 1180 nM
KD, affinity fit (14-3-3γ [2]; 25 °C, pH 7.4, replicate 2): 1130 nM
ka, kinetic fit (14-3-3γ [2]; [7]): 282000 M⁻¹ s⁻¹
kd, kinetic fit (14-3-3γ [2]; [8]): 0.31 ± 0.01 s⁻¹
KD, kinetic fit (14-3-3γ [2]; [9]): 1140 nM
kd, kinetic fit (14-3-3γ [2]; [9]): 0.3198 s⁻¹
KD, kinetic fit (14-3-3γ [2]; [10]): 1030 nM
ka, kinetic fit (14-3-3γ [2]; [10]): 290000 M⁻¹ s⁻¹
kd, kinetic fit (14-3-3γ [2]; [10]): 0.2988 s⁻¹
association rate (k on) fold increase compared to pepD (14-3-3γ [2]; SPR, 14-3-3γ): 3.5 fold
kon (14-3-3γ [2]; SD): 290000 M⁻¹ s⁻¹

Compound: Ac-RDKIRLNNAIWRAWYIQYVKRRKSPV-NH2 [ChREBP, acetylated ChREBP peptide purchased from GenScript, 14-3-3 client peptide]
effect of client peptide on 14-3-3β/macrocycle complex [4]: Stabilization
